One molecule from US8017585B2, “CXCR4 antagonist and use thereof” (priority 2002, dated 2011) can be followed below.

Bridge positions count the residues as written; N and C are the ends. Square brackets hold non-standard residues; d marks the D form. Peptide text beside a SMILES is read from it. * marks the point of attachment. 2Nal = N[C@@H](Cc1ccc2ccccc2c1)C(=O)O; Benzoyl(4-F) = O=C(c1ccc(F)cc1)*; Cit = NC(=O)NCCC[C@H](N)C(=O)O

Assay [1] has as its system Jurkat human T lymphocyte cell lines. Conditions: read-out: IC50 value, inhibition of SDF-1α-induced Jurkat cell migration; SDF-1α 1 ng/mL; 4 hours.
Description: RPMI-1640 and fetal calf serum (FCS) was purchased from BioWhittaker, penicillin-streptomycin solution, RPMI-1640 (without phenol red) and HEPES from Invitrogen, BSA from Sigma, and, human SDF-1α (CXCL12) from Genzyme. Jurkat human T lymphocyte cell lines were purchased from ATCC and incubated in RPMI-1640 10% FCS.
Using 24-wells Transwell (Costar, polycarbonate membrane, pore size 5 μm), migrating reaction was performed. 600 μL of SDF-1α (final concentration 1 ng/mL) was added to the lower layer of Transwell, 5×10^5 cells (200 μL) was added to the insert, and was reacted at 37° C. for 4 hours. The cells were pre-incubated with drugs at 37° C. for 30 minutes. The migrating reaction was made in RPMI-1640 culture media containing 20 mmol/L HEPES, 0.5% BSA. The cells migrated to the lower layer were recovered, and the number of the cells was counted by Coulter Counter. The inhibitory rate (%) against the migration by the drug of each concentration was calculated by the following formula, and IC50 value was calculated from such inhibitory rate.
The test system of another assay is SUP-T1 cells. The assay can be described thus: Inhibition of CXCL12-induced T-cell derived leukemia cell migration (Transwell). Conditions: 10 nM of the antagonist; 30 nM CXCL12; 4 hours. It counts as cell-based, human. As for the experimental part: 30 nM of CXCL12 (R&D System Company) and 600 μL/well of buffer-A (0.1% bovine serum albumin, DMEM (GibcoBRL) containing 12 mM HEPES) containing the test compound were added to the lower chamber of Transwell filter (polycarbonate filter, 8 μm diameter, Costar Company). The test compound and human cell-derived leukemia SUP-T1 cells (purchased from American Tissue Culture Collection), and 100 μL/well of buffer A containing 2×10^6 cells/mL were added to the upper chamber. After 4 hours' incubation at 37° C. in 5% CO2 incubator, the number of the cells moved to the lower chamber was counted by Coulter counter. Control (−) indicates the migration when CXCL12 was not added. Control (+) indicates the migration when CXCL12 was added. By adding CXCL12, the migration of SUP-T1 cells was enhanced. This CXCL12-induced migration of SUP-T1 cells was inhibited by 10 nM of the antagonist, 4Fbenzoyl-TN-14003. From the foregoing, 4Fbenzoyl-TN-14003, by inhibiting the movement of T-cells at low concentrations, is considered to be useful as an inhibitory drug for chronic rheumatoid arthritis.

Another assay has as its target T1, CXCR4 receptor (Homo sapiens, UniProt P61073).
T1 construct: 50 μL of Jurkat human T-cell leukemia cells (6×10^6 cells/mL) suspended in buffer; endogenous in cells; host or cells: Jurkat human T-cell leukemia cells
Description: Inhibition of 125I-CXCL12 binding to CXCR4 receptor on Jurkat cells. Conditions: Table 1, 125I-CXCL12, 1 hour at room temperature, compounds as acetate salt, read-out: IC50 (nM), inhibitory activity against CXCL12 binding to CXCR4 receptor.

Assay [2] deals with MDA-MB-231 human breast cancer cells. Description: Anti-metastatic activity, MDA-MB-231 cells implanted i.v. in SCID mice, lung metastasis. It counts as in vivo, CB-17 SCID mice. Conditions: 18.2 mg/kg/day by Alzet osmotic pump, 28 days after implantation. As for the experimental part:
MDA-MB-231 human breast cancer cells (10^6 cells) were implanted intravenously into the tails of five week-old female CB-17 SCID mice (Crea Japan, Inc.). 4Fbenzoyl-TN-14003 was prepared at 80 mg/mL in physiologic saline solution, was included into sustained-releasing osmotic pumps (Alzet pump, Alza Corporation, usable for 2 week sustained-release; the dose was equivalent to 18.2 mg/kg/day), and was intradermally loaded to the backs of the mice on the date immediately preceding the implantation. Further, 14 days after the implantation, Alzet pumps containing an equal dose of the drug were additionally loaded. To the control group, Alzet pumps injected with physiological saline solution were additionally loaded. 28 days after the implantation, the mice were dissected, about 2 mL of 0.2% Evans' Blue solution was injected through windpipes, and lungs were stained. The lungs were taken out, soaked in Bouin's liquid, stained and fixed. […] In the lungs of the control group, the yellow stained portions were evenly seen, and lung metastasis was observed. On the other hand, in the 4Fbenzoyl-TN-14003 administration group, yellow stained specimens were less.

The subject of a further assay is mouse splenocytes. Conditions: read-out: IC50 value, inhibition of SDF-1-induced migration of mouse splenocytes; SDF-1α 100 ng/mL; 2.5 hours.
The subject of assay [3] is mouse DTH reaction induced by SRBC. The assay can be described thus: Mouse delayed-type hypersensitivity reaction (DTH) induced by SRBC. It counts as in vivo, BALB/c mice. Conditions: Alzet osmotic pump. On the procedure:
Preserved blood of sheep was purchased from Nippon Bio-Supp. Center. The preserved sheep blood was cleansed twice in physiological saline solution, suspended in physiological saline solution, and used as sheep red blood cells (SRBC). As OD541 nm value of oxyhemoglobin at the time of hemolyzation of 1.0×10^9 cells/mL of the SRBC suspension by 14 parts distilled water is considered to be nearly 0.700, SRBC density was accordingly fixed.
2×10^7 cells/50 μl of SRBC were administered subcutaneously to the ankles of the left hindlimbs of BALB/c mice (male, 6 week-old, Charles River Japan, Inc.) and sensitized. After 5 days, 10^8 cells/50 μl of SRBC were administered subcutaneously to the ankles of the right hindlimbs and DTH reaction was induced. Immediately prior to and 24 hours after the induction of antigens, the thickness of the ankles of the right hindlimbs was measured by a digital micrometer (Mitutoyo Corporation CD-15B), and the increase (mm) in the thickness of ankles was adopted as the indicator of DTH reaction.
4Fbenzoyl-TN14003 was dissolved to PBS, and continuously administered using Alzet osmotic pumps (Alza, 0.5 μL/hr, 7 days persistent type). The osmotic pumps were implanted intradermally to the backs under ether anesthesia on the day before the sensitization. As the control, pumps injected with PBS were similarly implanted. 4F-benzoyl-TN14003 was administered at the doses of 4.8, 24 and 120 μg/day.
Data were expressed as mean value±standard margin of error (n=7). By Williams test, p≦0.025 was valued as significant.

For assay [4], the system named is mouse collagen-induced arthritis. Description: Mouse collagen-induced arthritis. Conditions: 120 μg/day, Alzet osmotic pump, 2 weeks. Format: in vivo, DBA/1JN mouse. On the procedure:
FK-506 was purified by a known method (Kino T. et al., J. Antibiot., 1987 40(9): 1249-55). […] For 2 weeks after the additional immunization, body weights and hindlimb thickness were measured and arthritis scoring was made. Arthritis scores were scored at 0-3 points of each limb, and evaluated by the total of the same (12 points being the full points; 0, normal; 1, mild swelling or swelling of a single digit; 2, moderate swelling or swelling of plural digits; 3, severe swelling). Two weeks after the immunization, four limbs and sera were picked. After coat blocking bovine type II collagen (10 μg/mL PBS solution) on the immunoplate, 100 μL of 1000 times diluted mouse serum was added, and kept at room temperature for 2 hours. After cleansing, anti-mouse IgG2a antibody (1000 times dilution) was added. After cleansing, TMB was added, kept at room temperature for 30 minutes, H2SO4 of equal amount was added, and A450 nm was measured. Indomethacin (1 mg/kg), methotrexate (3 mg/kg) and FK-506 (10 mg/kg) were suspended to 0.5% methyl cellulose, and orally administered every day for 2 weeks from the day of the additional immunization at the dose of 0.1 mL/10 g body weight. 0.5% methyl cellulose solution of the equal dose was orally administered to the control group. 4Fbenzoyl-TN14003 was dissolved to PBS, and continuously administered using Alzet osmotic pumps (Alza, 0.5 μL/hr 2 weeks). The osmotic pumps were implanted intradermally to the backs of the mice under ether anesthesia on the day before the additional immunization. As the control, pumps injected with PBS were similarly implanted. Evaluation of each drug was made for the value obtained 2 weeks after the additional immunization. Data were expressed as mean value±standard margin of error (n=8-12). Comparison between 2 groups was made by Student's t-test, p≦0.05 was valued as significant. Multiple comparison was made by Dunnett test, p≦0.05 was valued as significant.

T1 sequence (P61073 whole entry): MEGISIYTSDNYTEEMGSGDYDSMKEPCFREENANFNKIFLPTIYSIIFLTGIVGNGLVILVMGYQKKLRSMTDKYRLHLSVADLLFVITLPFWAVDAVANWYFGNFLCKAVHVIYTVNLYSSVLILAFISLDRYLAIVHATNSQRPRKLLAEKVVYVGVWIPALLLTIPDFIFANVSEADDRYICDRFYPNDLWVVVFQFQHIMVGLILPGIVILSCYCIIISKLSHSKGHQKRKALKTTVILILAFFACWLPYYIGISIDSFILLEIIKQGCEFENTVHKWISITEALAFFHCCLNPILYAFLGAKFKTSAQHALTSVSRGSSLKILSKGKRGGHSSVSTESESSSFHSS
Description for CXCR4 receptor: After reaction, suction was made toward the reaction solution by 96 well GF/C filter plate, and each well's radioactivity was measured by top count. As the radioactivity index of 100% when the test compound was not added, and 0% when 100 nM of non-radioisotope-labeled CXCL12 was added, the inhibitory activity of each test compound was measured.
Description for mouse splenocytes: Spleens were isolated from BALB/c mice (male, Charles River Japan, Inc.), converted to single cell suspensions, and splenocytes were prepared by crushing red blood cells.
SDF-1α (Peprotech, final concentration 100 ng/mL) was added to the lower layer of Transwell (pore size 5 μm), 1×10^6/well of the cells (100 μL) were added to the insert, and reacted at 37° C. for 2.5 hours. The cells were incubated with the drug at 37° C. for 30 minutes. Migrating reaction was made in the RPMI-1640 culture media containing 20 mmol/L HEPES, 0.5% BSA. The number of the cells migrated to the lower layer was counted by Coulter Counter. Similarly to the preceding clause, the inhibitory rate against the migration by the drug of each concentration and IC50 value were calculated.

Take `N=C(N)NCCC[C@H](NC(=O)[C@@H]1CSSC[C@H](NC(=O)[C@H](Cc2ccc3ccccc3c2)NC(=O)[C@H](CCCNC(=N)N)NC(=O)[C@H](CCCNC(=N)N)NC(=O)c2ccc(F)cc2)C(=O)N[C@@H](Cc2ccc(O)cc2)C(=O)N[C@@H](CCCNC(N)=O)C(=O)N[C@@H](CCCCN)C(=O)N[C@H](CCCCN)C(=O)N2CCC[C@H]2C(=O)N[C@@H](Cc2ccc(O)cc2)C(=O)N[C@@H](CCCNC(=N)N)C(=O)N[C@@H](CCCNC(N)=O)C(=O)N1)C(N)=O` [4F-benzoyl-TN14003, 4F-benzoyl-Arg-Arg-Nal-Cys-Tyr-Cit-Lys-DLys-Pro-Tyr-Arg-Cit-Cys-Arg-NH2] ({Benzoyl(4-F)}-RR[2Nal]CY[Cit]K[dK]PYR[Cit]CR-NH2; disulfide 4-13): the IC50 in assay [1] came out at 0.65 nM; on CXCR4 receptor, 0.99 nM; in the assay with mouse splenocytes, 0.54 nM. In addition, the “CXCL12-induced migration of SUP-T1 cells” value in the assay with SUP-T1 cells is given as “inhibited”. Further, the “lung metastasis (eye observation of metastatic focus)” value in assay [2] was “the metastasis was inhibited”. In addition, the “inhibitory rate of footpad edema (DTH)” value in assay [3] (4.8 μg/day) is reported as 9%; in assay [3] (24 μg/day), 31%; in assay [3] (120 μg/day), 51%. The arthritis score result in assay [4] was “significant inhibitory activity”. In addition, the body weight loss result in assay [4] is “significant inhibitory activity”. The hindlimb swelling entry in assay [4] is “significant inhibitory activity”. Also, the “increase of anti-type II collagen specific IgG2a antibody value” in assay [4] is “inhibitory tendency”.
